# Read-outs that look alike come from different tables or passages of the source.
# Columns and labels:
# PRMT7 [1] = target: T1, PRMT7 (Homo sapiens, UniProt Q9NVM4); parameters: method as in PMID 35482954; conditions: heatmap of Figure 2; cited from earlier work
# T1 construct: PRMT7 (residues 2–692, C-terminus); with an N-terminal His-tag; His (N); purchased Reaction Biology Corporation
# T1 sequence (Q9NVM4 2-692): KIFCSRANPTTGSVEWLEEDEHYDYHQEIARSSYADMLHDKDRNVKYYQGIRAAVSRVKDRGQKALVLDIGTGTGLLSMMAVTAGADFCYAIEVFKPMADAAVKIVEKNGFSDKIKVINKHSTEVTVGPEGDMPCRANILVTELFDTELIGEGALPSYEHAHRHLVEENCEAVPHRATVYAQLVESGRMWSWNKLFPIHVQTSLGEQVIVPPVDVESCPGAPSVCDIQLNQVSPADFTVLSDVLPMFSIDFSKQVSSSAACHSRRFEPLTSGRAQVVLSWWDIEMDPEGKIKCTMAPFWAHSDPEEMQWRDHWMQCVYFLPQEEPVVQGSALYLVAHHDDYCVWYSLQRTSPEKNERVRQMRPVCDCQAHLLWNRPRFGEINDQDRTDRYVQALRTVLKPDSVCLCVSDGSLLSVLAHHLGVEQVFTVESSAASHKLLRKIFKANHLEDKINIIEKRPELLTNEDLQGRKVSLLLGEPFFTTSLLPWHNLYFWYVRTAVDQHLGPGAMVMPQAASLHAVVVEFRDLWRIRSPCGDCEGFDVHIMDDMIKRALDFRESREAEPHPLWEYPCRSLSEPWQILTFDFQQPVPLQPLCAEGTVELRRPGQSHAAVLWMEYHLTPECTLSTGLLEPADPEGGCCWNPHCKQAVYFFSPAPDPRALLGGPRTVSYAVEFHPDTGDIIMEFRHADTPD
# PRMT7 [2] = target: T1, PRMT7; assay: HotSpot radioisotope-based filter assay, PRMT7; type: biochemical; conditions: 5 μM GST-GAR, 3H-SAM 1 μM
# Protocol: Then, ^3H-SAM (final concentration of 1 μM) was delivered into the reaction mixture to initiate the reaction. After incubation for 60 min at 30 °C, the reaction mixture was delivered to filter-paper for detection (as assessed by scintillation). Data were analyzed using Excel and GraphPad Prism 6.0 software (GraphPad Software Inc., San Diego, CA) for IC50 curve fits using sigmoidal dose vs response - variable slope (four parameters) equations.
# [3] = target: T2, MLL1/KMT2A (5 component complex) (Homo sapiens, UniProt Q03164); assay: HotSpot KMT activity assay, MLL1; type: biochemical; conditions: read-out: % MLL1 residual activity
# T2 construct: MLL1 residues 3745–3969, C-terminus; His (N); purchased Reaction Biology Corporation
# Source text: ; MW = 35.4 kDa; Genbank Accession # NM_018489), or the human recombinant EZH2-containing five-member polycomb repressive complex 2 (including EZH2 residues 2–746, AEBP2 2–517, EED 2–441, RbAp48 2–425, SUZ12 2–739; all full-length; with N-terminal Flag-tag on EED and N-terminal His-tag on all others; MW = 333.8 kDa; Genbank Accession # NM_001203247, NM_001114176, NM_003797, NM_005610, NM_015355), or the human recombinant G9a (residues 913–1193, C-terminus; with an N-terminal His-tag; MW = 34.6 kDa; Genbank Accession # NM_006709.3), or the human recombinant MLL1 complex (including MLL1 residues 3745–3969, C-terminus, WDR5 22–334, C-terminus, RbBP5 1–538, C-terminus, ASH2L 2–534, C-terminus, DPY-30 1–99, C-terminus; N-terminal His-tag on all subunits; MW = 212.0 kDa; Genbank Accession # NM_005933, NM_017588, NM_005057, NM_001105214, NM_0325742), or the human recombinant SET7/9 (residues 2–366, C-terminus; with a N-terminal GST-tag and a C-terminal His-tag; MW = 68.5 kDa; Genbank Accession # NM_030648), or the human recombinant SMYD3 (residues 2–428, C-terminus; C-terminal His-tag; MW = 50.1 kDa; Genbank Accession # NM_001167740), or the human recombinant SUV39H2 (residues 46–410, C-terminus; N-terminal fusion protein with a C-terminal His-tag; MW = 98.8 kDa; GenBank Accession No. NM_001193424), or the human recombinant DOT1L (residues 1–416; N-terminal GST-tag; MW = 80.0 kDa; Genbank Accession # NM_032482) was added to a solution of the proper substrate (oligo nucleosomes for ASH1L, MLL1 complex, and DOT1L, final concentration 0.05 mg/mL; core histone for EZH2 complex and SET7/9, final concentration 0.05 mg/mL; histone H3 for SUV39H2, final concentration 5 μM; histone H3 1–21 for G9a, final concentration 2.5 μM) in freshly prepared reaction buffer (50 mM Tris-HCl (pH 8.5), 5 mM MgCl2, 50 mM NaCl, 1 mM DTT, 1 mM PMSF, 1% DMSO) and gently mixed. […] After incubation for 60 min at 30 °C, the reaction mixture was delivered to filter paper for detection (as assessed by scintillation). […] Values obtained for each compound are mean ± SD determined for two separate experiments.
SMILES,IC50 (PRMT7 [1]) [µM],IC50 (PRMT7 [2]) [µM],remaining activity at 10 µM ([3]; 10 μM) [%],remaining activity at 100 µM ([3]; 100 μM) [%]
COC(=O)c1cc(O)c2cc(NC(=O)NCCCNC(=N)NC[C@H]3O[C@@H](n4cnc5c(N)ncnc54)[C@H](O)[C@@H]3O)ccc2c1 [1a],0.315,,,
"COC(=O)c1cc(O)c2cc(NC(=O)NCCCNC(=N)NC[C@H]3O[C@@H](n4cnc5c(N)ncnc54)[C@H](O)[C@@H]3O)cc(C(F)(F)F)c2c1 [1j, Methyl 6-(3-(3-(3-(((2R,3S,4R,5R)-5-(6-Amino-9H-purin-9-yl)-3,4-dihydroxytetrahydrofuran-2-yl)methyl)guanidino)propyl)ureido)-4-hydroxy-8-(trifluoromethyl)-2-naphthoate]",,5.6,90.5 ± 2.83,76.9 ± 3.96
